Measurements: ChEMBL document CHEMBL1201862, “PubChem BioAssay data set” (2004)
Active and inactive are the calls of the source.

Assays:
[1] = ARNT/TACC3 interaction disruptors, potency, confirmation, biochemical, AlphaScreen, cherry-picked samples (AID 651703); assay type: functional, Homo sapiens;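 note: His-tagged ARNT PAS-B domain paired with GST-TACC3 E629A dimer coactivator fragment; potency of inhibitors that break up the complex and lower AlphaScreen signal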
[2] = target: Dual specificity protein phosphatase 3 (Homo sapiens, UniProt P51452); assay: VHR phosphatase inhibition, dose response, selectivity assay for STEP inhibitor project, biochemical (AID 602374); assay type: functional; settings: read-out: IC50_Mean
Chain of Dual specificity protein phosphatase 3 (P51452 whole entry): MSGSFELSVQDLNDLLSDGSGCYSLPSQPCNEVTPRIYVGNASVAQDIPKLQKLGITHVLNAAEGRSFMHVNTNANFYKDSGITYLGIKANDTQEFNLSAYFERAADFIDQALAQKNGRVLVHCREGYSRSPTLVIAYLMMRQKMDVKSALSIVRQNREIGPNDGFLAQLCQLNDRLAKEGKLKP

[3] = target: Tyrosine-protein phosphatase non-receptor type 11 (Homo sapiens, UniProt Q06124); assay: SHP2 phosphatase inhibition, dose response, selectivity assay for STEP inhibitor project, biochemical (AID 602367); assay type: functional; settings: read-out: IC50_Mean
Chain of Tyrosine-protein phosphatase non-receptor type 11 (Q06124 whole entry): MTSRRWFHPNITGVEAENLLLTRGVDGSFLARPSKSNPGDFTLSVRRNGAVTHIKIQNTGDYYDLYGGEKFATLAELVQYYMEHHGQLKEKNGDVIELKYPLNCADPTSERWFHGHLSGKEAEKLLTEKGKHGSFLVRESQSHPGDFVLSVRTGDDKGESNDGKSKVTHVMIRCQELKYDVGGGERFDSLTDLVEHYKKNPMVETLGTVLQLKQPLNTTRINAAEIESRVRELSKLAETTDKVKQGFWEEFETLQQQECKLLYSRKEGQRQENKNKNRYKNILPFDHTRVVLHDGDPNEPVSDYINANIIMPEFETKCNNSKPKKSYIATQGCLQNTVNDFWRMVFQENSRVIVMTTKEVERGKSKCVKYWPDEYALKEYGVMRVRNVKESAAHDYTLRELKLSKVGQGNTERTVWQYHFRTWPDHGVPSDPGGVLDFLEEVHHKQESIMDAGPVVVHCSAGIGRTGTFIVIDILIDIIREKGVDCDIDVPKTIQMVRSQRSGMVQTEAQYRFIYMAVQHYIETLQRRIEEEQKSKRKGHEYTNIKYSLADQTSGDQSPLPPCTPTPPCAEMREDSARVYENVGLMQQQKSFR

[4] = target: Tyrosine-protein phosphatase non-receptor type 5 (Homo sapiens, UniProt P54829); assay: STEP phosphatase inhibitors, confirmation, biochemical, fluorescence intensity, uHTS hits (AID 602372); assay type: functional; settings: read-out: IC50_Mean
Chain of Tyrosine-protein phosphatase non-receptor type 5 (P54829 whole entry): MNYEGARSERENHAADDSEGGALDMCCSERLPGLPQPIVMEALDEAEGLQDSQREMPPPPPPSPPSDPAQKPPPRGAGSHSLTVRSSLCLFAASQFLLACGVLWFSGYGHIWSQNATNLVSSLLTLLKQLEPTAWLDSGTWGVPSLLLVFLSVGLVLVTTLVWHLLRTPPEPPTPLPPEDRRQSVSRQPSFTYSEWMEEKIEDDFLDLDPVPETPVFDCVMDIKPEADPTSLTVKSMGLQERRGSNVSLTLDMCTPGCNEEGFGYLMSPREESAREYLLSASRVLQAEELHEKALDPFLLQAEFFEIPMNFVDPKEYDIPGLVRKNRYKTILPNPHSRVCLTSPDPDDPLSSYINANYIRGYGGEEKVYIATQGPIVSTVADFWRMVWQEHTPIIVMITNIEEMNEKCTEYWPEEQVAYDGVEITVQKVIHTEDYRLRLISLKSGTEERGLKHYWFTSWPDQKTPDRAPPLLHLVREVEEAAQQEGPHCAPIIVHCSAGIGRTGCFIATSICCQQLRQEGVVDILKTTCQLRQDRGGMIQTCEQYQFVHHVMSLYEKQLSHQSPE

[5] = target: Glucose-6-phosphate 1-dehydrogenase (Homo sapiens, UniProt P11413); assay: human G6PD enzyme inhibitors, dose response, selectivity assay for P. falciparum G6PD inhibitor project, biochemical, fluorescence (AID 504792); assay type: functional
Chain of Glucose-6-phosphate 1-dehydrogenase (P11413 whole entry): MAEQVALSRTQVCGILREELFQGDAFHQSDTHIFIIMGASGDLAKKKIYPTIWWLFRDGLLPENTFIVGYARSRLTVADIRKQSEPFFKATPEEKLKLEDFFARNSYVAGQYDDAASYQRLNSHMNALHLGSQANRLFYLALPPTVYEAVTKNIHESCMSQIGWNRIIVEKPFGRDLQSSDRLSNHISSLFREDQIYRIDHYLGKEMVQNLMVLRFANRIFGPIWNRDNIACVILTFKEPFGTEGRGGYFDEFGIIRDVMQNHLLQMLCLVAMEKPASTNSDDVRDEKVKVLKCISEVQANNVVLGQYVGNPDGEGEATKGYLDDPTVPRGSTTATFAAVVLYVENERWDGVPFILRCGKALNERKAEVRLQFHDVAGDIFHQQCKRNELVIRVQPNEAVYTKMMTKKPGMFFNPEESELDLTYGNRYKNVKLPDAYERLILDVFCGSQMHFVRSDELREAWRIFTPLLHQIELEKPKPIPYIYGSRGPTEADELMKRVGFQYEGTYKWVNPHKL

[6] = cytotoxicity toward NIH3T3 fibroblasts, dose response, counter-screen, cell-based, ATP luminescence, mouse fibroblasts (AID 2010); assay type: functional;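 note: cells exposed to compound for about 90 hours before reading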
[7] = inhibitors of intracellular T. cruzi replication, confirmation, NIH3T3 host cells, beta-gal luminescence (AID 2044); assay type: functional, cell-based;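 note: intracellular parasites grown in NIH/3T3 mouse fibroblasts as host cells; luminescent beta-galactosidase reporter signal from transgenic T. cruzi replicating inside host cells; inhibitors lower the luminescence signal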
[8] = THP-1 cell cytotoxicity, dose response, cytotoxicity control for non-replicating M. tuberculosis project (AID 489025); assay type: functional
[9] = cells; assay type: functional
[10] = target: Mitochondrial peptide methionine sulfoxide reductase (Bos taurus, UniProt P54149); assay: Absorbance-based biochemical high throughput dose response assay for activators of Methionine sulfoxide reductase A (MsrA).; assay type: functional
Chain of Mitochondrial peptide methionine sulfoxide reductase (P54149 whole entry): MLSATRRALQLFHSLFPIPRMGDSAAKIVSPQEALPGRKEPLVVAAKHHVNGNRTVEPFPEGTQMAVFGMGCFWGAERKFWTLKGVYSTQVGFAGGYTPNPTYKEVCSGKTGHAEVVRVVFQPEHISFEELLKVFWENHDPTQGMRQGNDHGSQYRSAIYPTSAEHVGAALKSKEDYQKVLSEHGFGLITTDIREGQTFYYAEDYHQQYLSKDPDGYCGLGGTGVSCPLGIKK

[11] = Vero E6 cell cytotoxicity, dose response, cytotoxicity control for non-replicating M. tuberculosis project, secondary assay (AID 492998); assay type: functional, VeroE6; settings: Vero C1008
[12] = target: T1, Microphthalmia-associated transcription factor (Homo sapiens, UniProt O75030); assay: TRPM1 promoter luciferase signal decrease, dose response, MITF inhibitor project, cell-based, SK-MEL-5, cherry-picked, set 3 (AID 493073); assay type: functional
T1 sequence (O75030 whole entry): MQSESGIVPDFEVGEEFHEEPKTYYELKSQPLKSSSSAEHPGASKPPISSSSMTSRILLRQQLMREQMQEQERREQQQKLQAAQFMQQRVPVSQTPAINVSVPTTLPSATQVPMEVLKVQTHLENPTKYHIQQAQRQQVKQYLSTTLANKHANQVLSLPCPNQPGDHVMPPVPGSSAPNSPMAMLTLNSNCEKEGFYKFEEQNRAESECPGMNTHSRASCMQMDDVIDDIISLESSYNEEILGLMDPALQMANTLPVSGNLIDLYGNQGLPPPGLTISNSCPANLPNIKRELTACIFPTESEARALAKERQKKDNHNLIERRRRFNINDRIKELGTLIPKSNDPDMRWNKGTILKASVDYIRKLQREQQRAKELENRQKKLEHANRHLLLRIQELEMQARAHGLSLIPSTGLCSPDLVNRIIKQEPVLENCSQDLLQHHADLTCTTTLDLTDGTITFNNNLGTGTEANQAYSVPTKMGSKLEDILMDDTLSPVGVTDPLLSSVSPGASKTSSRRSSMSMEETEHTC

[13] = target: Steroidogenic factor 1 (Homo sapiens, UniProt Q13285); assay: Counterscreen for inverse agonists of the liver receptor homolog-1 (LRH-1; NR5A2): Luminescence-based cell-based high throughput dose response assay to identify inverse agonists of the Steroidogenic Factor 1 Nuclear Receptor (SF1; NR5A1).; assay type: functional
Chain of Steroidogenic factor 1 (Q13285 whole entry): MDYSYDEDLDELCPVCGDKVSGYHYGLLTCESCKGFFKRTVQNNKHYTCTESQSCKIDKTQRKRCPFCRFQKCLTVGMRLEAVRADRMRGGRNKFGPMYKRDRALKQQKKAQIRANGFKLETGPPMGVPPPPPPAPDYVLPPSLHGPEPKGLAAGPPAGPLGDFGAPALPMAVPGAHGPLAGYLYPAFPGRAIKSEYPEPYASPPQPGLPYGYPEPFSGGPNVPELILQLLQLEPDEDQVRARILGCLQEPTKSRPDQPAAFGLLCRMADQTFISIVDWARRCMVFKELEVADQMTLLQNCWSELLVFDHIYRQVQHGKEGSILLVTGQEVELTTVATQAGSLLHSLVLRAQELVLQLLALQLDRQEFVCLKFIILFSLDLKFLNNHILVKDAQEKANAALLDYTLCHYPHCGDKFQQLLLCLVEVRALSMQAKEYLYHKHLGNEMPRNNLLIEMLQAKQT

[14] = target: Nuclear receptor subfamily 5 group A member 2 (Homo sapiens, UniProt O00482); assay type: functional, cell-based;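 note: HEK293T cells transfected with LRH-1 and a StAR promoter luciferase reporter; potency for inhibitors that lower LRH-1 driven reporter light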
Chain of Nuclear receptor subfamily 5 group A member 2 (O00482 whole entry): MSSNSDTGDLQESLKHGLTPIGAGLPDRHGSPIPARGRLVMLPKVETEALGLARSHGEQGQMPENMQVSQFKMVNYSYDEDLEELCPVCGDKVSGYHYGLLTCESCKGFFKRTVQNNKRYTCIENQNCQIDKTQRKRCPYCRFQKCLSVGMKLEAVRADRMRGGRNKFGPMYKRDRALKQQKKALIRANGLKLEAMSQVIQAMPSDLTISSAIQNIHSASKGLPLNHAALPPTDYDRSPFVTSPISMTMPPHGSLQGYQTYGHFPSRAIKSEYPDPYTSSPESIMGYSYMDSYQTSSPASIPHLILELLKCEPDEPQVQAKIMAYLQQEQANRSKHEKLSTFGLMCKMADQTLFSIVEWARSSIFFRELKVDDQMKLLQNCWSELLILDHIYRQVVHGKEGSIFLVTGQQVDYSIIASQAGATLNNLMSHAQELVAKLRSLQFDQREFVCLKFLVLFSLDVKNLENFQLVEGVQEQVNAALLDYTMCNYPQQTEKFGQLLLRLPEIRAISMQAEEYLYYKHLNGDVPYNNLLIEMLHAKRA

[15] = StAR promoter reporter inhibition counter-screen, dose response, counter-screen for LRH-1 inverse agonist project, cell-based, luminescence, luciferase reporter (AID 651969); assay type: functional

CCOc1ccc2c(c1)C(N(CCN1CCOCC1)C(=O)Nc1ccccc1)CC(C)(C)O2 (stereo not given)
AC50 [1]: 84 µM (active)

CCN1CCN(C(=S)c2ccc(Cl)c(Cl)c2)CC1
IC50 [2]: 0.81 µM (active) | IC50 [3]: 0.843 µM (active) | IC50 [4]: 18.2 µM (active) | IC50 [5]: > 80 µM (inactive)

O=C(N/N=C/c1ccc([N+](=O)[O-])s1)c1cccc(Br)c1
EC50 [6]: 5.39 µM (active) | EC50 [7]: 0.754 µM (active) | CC50 [8]: 7.59 µM (active) | IC50 [9]: 4.37 µM (active) | EC50 [10]: > 104 µM (inactive) | CC50 [11]: 6.21 µM (active) | AC50 [12]: 4.83 µM (active)

COc1cc(/C=N/n2nnnc2N)ccc1OCc1c(C)no[n+]1[O-]
IC50 [13]: 6.23 µM (active) | IC50 [14]: 12.4 µM (inactive) | IC50 [15]: 35.9 µM (inactive)
